The target of test [1] is T1, Recombinant human TLR2 (RPA663Hu03) (Homo sapiens, UniProt O60603).
T1 construct: commercial recombinant protein (Biocom Africa), His-tag labelled with Red-tris-NTA
The test can be described thus: microscale thermophoresis, His-tag-labelled TLR2. The test is classed as binding. The text has this: microscale thermophoresis, His-tag-labelled TLR2 on Recombinant human TLR2 (RPA663Hu03)

In test [2] the target is T2, Recombinant human TLR4 (Active ab233665) (Homo sapiens, UniProt O00206).
T2 construct: commercial recombinant protein (Abcam), labelled with Blue-NHS dye; no MD-2 mentioned
The experiment in a line: microscale thermophoresis, Blue-NHS-labelled TLR4. The test is classed as binding. The text has this: microscale thermophoresis, Blue-NHS-labelled TLR4 on Recombinant human TLR4 (Active ab233665)
Background: In MST a laser heats a spot of the sample, and binding alters the fluorescence response.

Results on one compound are retold here after article PMC11812216, “Multifunctional hyaluronic acid-based biomimetic/pH-responsive hybrid nanostructured lipid carriers for treating bacterial sepsis” (Journal of Biomedical Science, 2025).

T2 sequence (O00206 24-631 limits assumed): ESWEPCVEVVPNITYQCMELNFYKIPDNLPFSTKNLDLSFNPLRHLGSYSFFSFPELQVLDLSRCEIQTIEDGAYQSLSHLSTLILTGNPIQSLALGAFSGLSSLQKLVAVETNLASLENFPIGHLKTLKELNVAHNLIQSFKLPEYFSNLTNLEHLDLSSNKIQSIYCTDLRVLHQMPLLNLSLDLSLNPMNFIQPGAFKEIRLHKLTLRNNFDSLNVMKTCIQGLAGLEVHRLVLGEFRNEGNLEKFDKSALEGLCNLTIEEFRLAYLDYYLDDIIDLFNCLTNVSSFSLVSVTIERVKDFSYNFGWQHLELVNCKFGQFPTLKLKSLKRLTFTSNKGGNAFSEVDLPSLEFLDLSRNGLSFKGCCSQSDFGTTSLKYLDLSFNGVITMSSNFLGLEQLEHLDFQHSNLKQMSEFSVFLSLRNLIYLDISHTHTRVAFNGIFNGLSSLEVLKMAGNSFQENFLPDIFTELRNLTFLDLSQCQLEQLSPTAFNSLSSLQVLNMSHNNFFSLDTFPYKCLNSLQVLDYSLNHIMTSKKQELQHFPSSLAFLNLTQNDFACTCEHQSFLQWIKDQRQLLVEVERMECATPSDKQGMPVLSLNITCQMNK
T1 sequence (O60603 21-588 limits assumed): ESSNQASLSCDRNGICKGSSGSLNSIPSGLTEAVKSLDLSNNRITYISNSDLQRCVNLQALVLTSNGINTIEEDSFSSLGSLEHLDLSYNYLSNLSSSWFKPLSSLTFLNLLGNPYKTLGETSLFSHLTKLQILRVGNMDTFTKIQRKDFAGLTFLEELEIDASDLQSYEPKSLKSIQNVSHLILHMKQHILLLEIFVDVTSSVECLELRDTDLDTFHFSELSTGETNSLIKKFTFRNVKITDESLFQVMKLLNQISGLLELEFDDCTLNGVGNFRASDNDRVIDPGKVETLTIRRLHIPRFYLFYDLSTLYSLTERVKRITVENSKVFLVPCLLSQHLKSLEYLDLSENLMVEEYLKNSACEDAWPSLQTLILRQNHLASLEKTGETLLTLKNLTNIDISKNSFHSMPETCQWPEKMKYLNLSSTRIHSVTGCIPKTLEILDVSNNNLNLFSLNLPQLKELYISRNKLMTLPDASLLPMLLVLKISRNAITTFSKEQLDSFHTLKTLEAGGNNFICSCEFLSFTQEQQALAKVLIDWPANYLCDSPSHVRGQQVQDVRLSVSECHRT

As a reminder, the Kd is the concentration at which binding is half-saturated. `NCCCC[C@H](N)C(=O)O` [Lys]: the Kd in test [1] amounted to 2.78 ± 0.74 µM; in test [2], 43.5 ± 2.35 µM.
